For 6 molecules, IC50 and MIC results are on record in ChEMBL document CHEMBL4402510, “Caprazamycins: Promising lead structures acting on a novel antibacterial target MraY” (Eur J Med Chem, 2019).

Values after ≈ are worked out from the molar mass of the structure shown. Bounds are passed on as bounds.

Experiment [1] concerns the target Phospho-N-acetylmuramoyl-pentapeptide-transferase (Escherichia coli, UniProt E2QF15). The experiment is described as follows: Inhibition of MraY in Escherichia coli.
The subject of experiment [2] is Haemophilus influenzae. The experiment is described as follows: Antibacterial activity against Haemophilus influenzae after 20 hrs by NCCLS-based two-fold broth dilution method. Format: functional. On the technique in general: Broth dilution looks for growth in wells or tubes with falling amounts of substance.
Experiment [3] relates to Staphylococcus aureus. The experiment is described as follows: Antibacterial activity against methicillin resistant Staphylococcus aureus after 20 hrs by NCCLS-based two-fold broth dilution method. The conditions noted are these: read-out: MIC. Format: functional.
Experiment [4] concerns Escherichia coli. The experiment is described as follows: Antibacterial activity against Escherichia coli after 20 hrs by NCCLS-based two-fold broth dilution method. Format: functional.
Experiment [5] has as its target T1, Phospho-N-acetylmuramoyl-pentapeptide-transferase (Staphylococcus aureus, UniProt P0C1R8).
T1 sequence (P0C1R8 whole entry): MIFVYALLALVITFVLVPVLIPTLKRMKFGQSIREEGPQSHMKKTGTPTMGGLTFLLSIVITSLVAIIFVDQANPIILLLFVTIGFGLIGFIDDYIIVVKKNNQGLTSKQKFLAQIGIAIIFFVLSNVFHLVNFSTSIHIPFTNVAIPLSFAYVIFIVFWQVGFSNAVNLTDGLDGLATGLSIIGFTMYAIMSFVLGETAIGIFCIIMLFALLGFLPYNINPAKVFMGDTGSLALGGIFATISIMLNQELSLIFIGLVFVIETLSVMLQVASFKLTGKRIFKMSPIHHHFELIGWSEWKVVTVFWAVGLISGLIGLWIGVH
The experiment is described as follows: Inhibition of MraY in Staphylococcus aureus.

Experiment [6] has as its system Enterococcus faecalis. The experiment is described as follows: Antibacterial activity against t Enterococcus faecalis VRE after 20 hrs by NCCLS-based two-fold broth dilution method. To be noted: read-out: MIC. Format: functional.
The subject of experiment [7] is Enterococcus faecium. The experiment is described as follows: Antibacterial activity against Enterococcus faecium SR7917 (VRE). Format: functional.
The test system of experiment [8] is Escherichia coli. The experiment is described as follows: Antibacterial activity against Escherichia coli ATCC 25922. Format: functional.
Experiment [9] has as its system Enterococcus faecium. The experiment is described as follows: Antibacterial activity against Enterococcus faecium ATCC 19434. Format: functional.
In experiment [10] the test system is Enterococcus faecalis. The experiment is described as follows: Antibacterial activity against Enterococcus faecalis SR7914 (VRE). Format: functional.
Experiment [11] concerns Staphylococcus aureus. The experiment is described as follows: Antibacterial activity against methicillin resistant Staphylococcus aureus SR3637. Format: functional.
Experiment [12] deals with Pseudomonas aeruginosa. The experiment is described as follows: Antibacterial activity against Pseudomonas aeruginosa after 20 hrs by NCCLS-based two-fold broth dilution method. Format: functional.
The subject of experiment [13] is Enterococcus faecalis. The experiment is described as follows: Antibacterial activity against Enterococcus faecalis ATCC 29212. Format: functional.
Another experiment concerns Streptococcus pneumoniae. The experiment is described as follows: Antibacterial activity against Streptococcus pneumoniae. Format: functional.
In experiment [14] the test system is Enterococcus faecalis. The experiment is described as follows: Antibacterial activity against t Enterococcus faecalis after 20 hrs by NCCLS-based two-fold broth dilution method. Format: functional. The conditions noted are these: read-out: MIC.
In the next experiment the test system is Acinetobacter baumannii. The experiment is described as follows: Antibacterial activity against Acinetobacter baumannii ATCC 19606. Format: functional. The conditions noted are these: ATCC 19606 = CIP 70.34 = JCM 6841.
In experiment [15] the test system is Pseudomonas aeruginosa. The experiment is described as follows: Antibacterial activity against Pseudomonas aeruginosa PAO1 deltamexB. Format: functional.
Experiment [16] relates to Staphylococcus aureus. The experiment is described as follows: Antibacterial activity against methicillin susceptible Staphylococcus aureus ATCC 29213. Format: functional.
The test system of experiment [17] is Pseudomonas aeruginosa. The experiment is described as follows: Antibacterial activity against Pseudomonas aeruginosa YY165. Format: functional.
The subject of experiment [18] is Enterococcus faecium. The experiment is described as follows: Antibacterial activity against t Enterococcus faecium VRE after 20 hrs by NCCLS-based two-fold broth dilution method. To be noted: read-out: MIC. Format: functional.
In experiment [19] the test system is Staphylococcus aureus. The experiment is described as follows: Antibacterial activity against methicillin susceptible Staphylococcus aureus after 20 hrs by NCCLS-based two-fold broth dilution method. Format: functional. To be noted: read-out: MIC.
Experiment [20] concerns Haemophilus influenzae. The experiment is described as follows: Antibacterial activity against Haemophilus influenzae ATCC 10211. Format: functional.
Experiment [21] relates to Enterococcus faecium. The experiment is described as follows: Antibacterial activity against t Enterococcus faecium after 20 hrs by NCCLS-based two-fold broth dilution method. Format: functional.

Phospho-N-acetylmuramoyl-pentapeptide-transferase (Escherichia coli, UniProt E2QF15), sequence (E2QF15 whole entry): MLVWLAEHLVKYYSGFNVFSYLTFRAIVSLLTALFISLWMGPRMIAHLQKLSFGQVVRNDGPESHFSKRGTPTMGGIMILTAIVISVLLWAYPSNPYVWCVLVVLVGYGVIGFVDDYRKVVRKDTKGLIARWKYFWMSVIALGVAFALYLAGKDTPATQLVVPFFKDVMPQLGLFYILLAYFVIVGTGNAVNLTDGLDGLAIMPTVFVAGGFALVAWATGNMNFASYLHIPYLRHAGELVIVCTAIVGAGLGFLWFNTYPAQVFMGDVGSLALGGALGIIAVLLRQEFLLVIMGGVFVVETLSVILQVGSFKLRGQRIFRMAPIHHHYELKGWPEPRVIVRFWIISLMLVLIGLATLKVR

Regarding `NC[C@H]1O[C@@H](O[C@@H](CO)[C@H]2O[C@@H](n3ccc(=O)[nH]c3=O)[C@H](O)[C@@H]2O)[C@H](O)[C@@H]1O`, half-maximal inhibition in experiment [1] (IC50) required 5 µM.
In the case of `NC[C@H]1O[C@@H](OC[C@H]2O[C@@H](n3ccc(=O)[nH]c3=O)[C@H](O)[C@@H]2O)[C@H](O)[C@@H]1O`, the IC50 (as a rule, the concentration that gives 50% inhibition) in experiment [1] was 50 µM.
As for `CCCCCCCCCCCCCCCC(=O)N[C@@H]1CCN[C@@H]([C@H](O[C@@H]2O[C@H](CN)[C@@H](O)[C@H]2O)[C@H]2O[C@@H](n3ccc(=O)[nH]c3=O)[C@H](O)[C@@H]2O)C1`, the MIC is 32 µg/mL (≈ 45 µM) with Haemophilus influenzae [2]; 16 µg/mL (≈ 22.5 µM) in the experiment on Staphylococcus aureus [3]; 4 µg/mL (≈ 5.62 µM) against Escherichia coli [4]; 2 µg/mL (≈ 2.81 µM) with Enterococcus faecalis [6]; 4 µg/mL (≈ 5.62 µM) in the experiment on Enterococcus faecium [7]; over 64 µg/mL against Escherichia coli [8]. Further, the MIC in the experiment on Enterococcus faecium [9] came out at 8 µg/mL (≈ 11.2 µM); with Enterococcus faecalis [10], 2 µg/mL (≈ 2.81 µM); against Staphylococcus aureus [11], 16 µg/mL (≈ 22.5 µM); with Pseudomonas aeruginosa [12], 32 µg/mL (≈ 45 µM); against Enterococcus faecalis [13], 4 µg/mL (≈ 5.62 µM); in the experiment on Streptococcus pneumoniae it was 64 µg/mL (≈ 89.9 µM). In addition, the MIC in the experiment with Enterococcus faecalis [14] was 4 µg/mL (≈ 5.62 µM); in the experiment on Acinetobacter baumannii it was over 64 µg/mL; with Pseudomonas aeruginosa [15], over 64 µg/mL; against Staphylococcus aureus [16], 8 µg/mL (≈ 11.2 µM); against Pseudomonas aeruginosa [17] it was 32 µg/mL (≈ 45 µM); with Enterococcus faecium [18] it was 8 µg/mL (≈ 11.2 µM). The MIC is 8 µg/mL (≈ 11.2 µM) in the experiment on Staphylococcus aureus [19], 32 µg/mL (≈ 45 µM) with Haemophilus influenzae [20] and 2 µg/mL (≈ 2.81 µM) against Enterococcus faecium [21]. Besides, the IC50 in [5] amounted to 24 µM.
For the molecule `CCCCCCCCCCCCCCCC(=O)N[C@H]1CCN[C@H]([C@@H](O[C@@H]2O[C@H](CN)[C@@H](O)[C@H]2O)[C@H]2O[C@@H](n3ccc(=O)[nH]c3=O)[C@H](O)[C@@H]2O)C1`, the MIC with Staphylococcus aureus [3] worked out at 16 µg/mL (≈ 22.5 µM); in the experiment with Escherichia coli [4], 32 µg/mL (≈ 45 µM); with Enterococcus faecalis [6] it was 16 µg/mL (≈ 22.5 µM); against Enterococcus faecium [7], 8 µg/mL (≈ 11.2 µM); against Escherichia coli [8], 32 µg/mL (≈ 45 µM); against Enterococcus faecium [9], 32 µg/mL (≈ 45 µM). The MIC was 16 µg/mL (≈ 22.5 µM) against Enterococcus faecalis [10]; 16 µg/mL (≈ 22.5 µM) in the experiment on Staphylococcus aureus [11]; 16 µg/mL (≈ 22.5 µM) in the experiment on Enterococcus faecalis [13]; 64 µg/mL (≈ 89.9 µM) against Streptococcus pneumoniae; 16 µg/mL (≈ 22.5 µM) with Enterococcus faecalis [14]; over 64 µg/mL against Acinetobacter baumannii. In addition, the MIC in the experiment with Pseudomonas aeruginosa [15] was over 64 µg/mL; in the experiment on Staphylococcus aureus [16], 8 µg/mL (≈ 11.2 µM); in the experiment with Pseudomonas aeruginosa [17], over 64 µg/mL; in the experiment on Enterococcus faecium [18], 8 µg/mL (≈ 11.2 µM); with Staphylococcus aureus [19], 8 µg/mL (≈ 11.2 µM); against Haemophilus influenzae [20] it was over 64 µg/mL. Moreover, the MIC with Enterococcus faecium [21] came out at 32 µg/mL (≈ 45 µM). The same molecule yielded an IC50 in experiment [5] of over 2700 µM.
As to `CCCCCCCCCCCCCCCC(=O)OC[C@H]1[C@@H](C(=O)N(C)C)[C@H]([C@H]2O[C@@H](n3ccc(=O)[nH]c3=O)[C@H](O)[C@@H]2O)ON1CCCN`, the MIC with Haemophilus influenzae [2] and in the experiment on Haemophilus influenzae [20] was 1 µg/mL (≈ 1.47 µM) throughout.
In the case of `CCCCCCCCCCCCCCCC(=O)N[C@H]1CCN[C@H]([C@H](O[C@@H]2O[C@H](CN)[C@@H](O)[C@H]2O)[C@H]2O[C@@H](n3ccc(=O)[nH]c3=O)[C@H](O)[C@@H]2O)C1`, the MIC with Haemophilus influenzae [2] stood at 32 µg/mL (≈ 45 µM); with Staphylococcus aureus [3] it was 8 µg/mL (≈ 11.2 µM); against Escherichia coli [4], 16 µg/mL (≈ 22.5 µM); in the experiment on Enterococcus faecalis [6] it was 8 µg/mL (≈ 11.2 µM); against Enterococcus faecium [7], 4 µg/mL (≈ 5.62 µM); against Escherichia coli [8], 16 µg/mL (≈ 22.5 µM). For the same molecule, the MIC is 8 µg/mL (≈ 11.2 µM) in the experiment with Enterococcus faecium [9]; 8 µg/mL (≈ 11.2 µM) in the experiment with Enterococcus faecalis [10]; 8 µg/mL (≈ 11.2 µM) against Staphylococcus aureus [11]; 32 µg/mL (≈ 45 µM) in the experiment with Pseudomonas aeruginosa [12]; 8 µg/mL (≈ 11.2 µM) in the experiment on Enterococcus faecalis [13]; over 64 µg/mL against Streptococcus pneumoniae. For the same molecule, the MIC is 8 µg/mL (≈ 11.2 µM) with Enterococcus faecalis [14]; over 64 µg/mL in the experiment on Acinetobacter baumannii; over 64 µg/mL with Pseudomonas aeruginosa [15]; 8 µg/mL (≈ 11.2 µM) against Staphylococcus aureus [16]; 32 µg/mL (≈ 45 µM) with Pseudomonas aeruginosa [17]; 4 µg/mL (≈ 5.62 µM) in the experiment on Enterococcus faecium [18]. Moreover, the MIC in the experiment on Staphylococcus aureus [19] was 8 µg/mL (≈ 11.2 µM); in the experiment with Haemophilus influenzae [20], 32 µg/mL (≈ 45 µM); against Enterococcus faecium [21], 8 µg/mL (≈ 11.2 µM).
